Results: US20130196984A1, “3-AMINO-5-PHENYL-56-DIHYDRO-2H-[1,4]OXAZINES” (Siena Biotech S.p.A., priority 2009, published 2013)
Where a name gives a salt, the structure may show the parent alone.

Key:
BACE1 = BACE1 (Homo sapiens, UniProt P56817); assay: Assay A: binding studies using SPR based methods, immobilised BACE1; design: 6his-tagged full length BACE 1 expressed in SF9 cells; 6His; made in house; host or cells: SF9 insect cells; details: CM5 chip, immobilised 6his-tagged full length BACE 1, acetate buffer pH 4.6, 4% DMSO;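 further: KD from a 1:1 kinetic fit (koff/kon) of real-time association and dissociation curves, or for fast binders from end-of-association equilibrium responses plotted against log concentration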
BACE2 = target: T1, BACE2 (Homo sapiens, UniProt Q9Y5Z0); assay: Assay A: binding studies using SPR based methods, immobilised BACE2; details: CM5 chip, immobilised BACE2 enzyme ectodomain, acetate buffer pH 4.6, 4% DMSO
T1 construct: BACE2 enzyme ectodomain (derived from plasmid “pET17b-T7-hu proBACE2”); T7 (N); made in house
T1 sequence (Q9Y5Z0 63-473 limits assumed): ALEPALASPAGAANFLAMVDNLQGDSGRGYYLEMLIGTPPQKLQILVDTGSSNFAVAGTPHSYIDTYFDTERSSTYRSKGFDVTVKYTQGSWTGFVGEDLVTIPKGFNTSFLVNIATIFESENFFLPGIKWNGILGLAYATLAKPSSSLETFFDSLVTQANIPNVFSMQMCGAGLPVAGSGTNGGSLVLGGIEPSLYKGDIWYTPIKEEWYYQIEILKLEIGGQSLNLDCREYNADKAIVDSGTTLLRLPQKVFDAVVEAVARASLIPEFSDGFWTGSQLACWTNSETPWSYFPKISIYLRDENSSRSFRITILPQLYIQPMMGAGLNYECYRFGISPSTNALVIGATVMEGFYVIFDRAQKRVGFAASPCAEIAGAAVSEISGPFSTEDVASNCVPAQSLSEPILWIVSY

Sequence of BACE1 (P56817 46-501): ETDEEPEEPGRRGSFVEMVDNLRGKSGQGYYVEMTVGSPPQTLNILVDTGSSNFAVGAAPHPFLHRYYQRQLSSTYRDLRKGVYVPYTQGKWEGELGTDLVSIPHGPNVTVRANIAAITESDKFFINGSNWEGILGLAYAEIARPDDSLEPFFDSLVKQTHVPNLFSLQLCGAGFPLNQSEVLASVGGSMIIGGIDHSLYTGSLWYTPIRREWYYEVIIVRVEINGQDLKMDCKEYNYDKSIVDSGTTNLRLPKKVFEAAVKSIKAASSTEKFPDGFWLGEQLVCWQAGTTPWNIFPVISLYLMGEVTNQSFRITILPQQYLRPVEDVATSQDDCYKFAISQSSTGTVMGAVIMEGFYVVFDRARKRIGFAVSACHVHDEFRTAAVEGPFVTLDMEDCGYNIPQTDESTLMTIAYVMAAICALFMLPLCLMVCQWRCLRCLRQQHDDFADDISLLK

Kd (BACE1) [µM]	Kd (BACE2) [µM]	SMILES
1.5	6	CCC(C)c1cc(Cl)cnc1C(=O)Nc1ccc(F)c([C@]2(C)COCC(N)=N2)c1 (mixture of isomers) [Example 71, 3-((RS)-sec-butyl)-5-chloro-pyridine-2-carboxylic acid [3-((R)-5-amino-3-methyl-3,6-dihydro-2H-[1,4]oxazin-3-yl)-4-fluoro-phenyl]-amide hydrochloride]
> 10	6.9	C[C@@]1(c2cc(NC(=O)C(CC3CCCO3)C(F)(F)F)ccc2F)COCC(N)=N1 (mixture of isomers) [Example 85, (RS)—N-[3-((R)-5-amino-3-methyl-3,6-dihydro-2H-[1,4]oxazin-3-yl)-4-fluoro-phenyl]-3,3,3-trifluoro-2-[(RS)-1-(tetrahydro-furan-2-yl)methyl]-propionamide formate]
> 10	6.1	C[C@@]1(c2cc(NC(=O)C3CCOC3)ccc2F)COCC(N)=N1 (mixture of isomers) [Example 96, (RS)-tetrahydro-furan-3-carboxylic acid [3-((R)-5-amino-3-methyl-3,6-dihydro-2H-[1,4]oxazin-3-yl)-4-fluoro-phenyl]-amide formate]
1.68	0.58	CC1(c2cccc(NC(=O)c3ccc(Cl)cc3F)c2)COCC(N)=N1 (racemic) [Example 3, (RS)—N-[3-(5-amino-3-methyl-3,6-dihydro-2H-[1,4]oxazin-3-yl)-phenyl]-4-chloro-2-fluoro-benzamide]
62.5	5.3	CC1(c2cccc(NC(=O)c3cc(F)ccc3F)c2)COCC(N)=N1 (racemic) [Example 5, (RS)—N-[3-(5-amino-3-methyl-3,6-dihydro-2H-[1,4]oxazin-3-yl)-phenyl]-2,5-difluoro-benzamide]
3.3	0.361	Cc1nc(C(=O)Nc2cccc(C3(C)COCC(N)=N3)c2)cs1 (racemic) [Example 10, (RS)-2-methyl-thiazole-4-carboxylic acid [3-(5-amino-3-methyl-3,6-dihydro-2H-[1,4]oxazin-3-yl)-phenyl]-amide]
33	5.4	CC1(c2cccc(NC(=O)c3ccn(CC(F)(F)F)n3)c2)COCC(N)=N1 (racemic) [Example 14, (RS)-1-(2,2,2-trifluoro-ethyl)-1H-pyrazole-3-carboxylic acid [3-(5-amino-3-methyl-3,6-dihydro-2H-[1,4]oxazin-3-yl)-phenyl]-amide]
20.1	6.7	Cn1nc(C(=O)Nc2cccc(C3(C)COCC(N)=N3)c2)c2ccccc21 (racemic) [Example 15, (RS)-1-methyl-1H-indazole-3-carboxylic acid [3-(5-amino-3-methyl-3,6-dihydro-2H-[1,4]oxazin-3-yl)-phenyl]-amide]
1.41	0.513	CC1(c2cccc(NC(=O)c3cc4ccccn4n3)c2)COCC(N)=N1 (racemic) [Example 16, (RS)-Pyrazolo[1,5-a]pyridine-2-carboxylic acid [3-(5-amino-3-methyl-3,6-dihydro-2H-[1,4]oxazin-3-yl)-phenyl]-amide]
4	4.9	CC1(c2cc(NC(=O)CC(F)(F)F)ccc2F)COCC(N)=N1 (racemic) [Example 79, (RS)—N-[3-(5-Amino-3-methyl-3,6-dihydro-2H-[1,4]oxazin-3-yl)-4-fluoro-phenyl]-3,3,3-trifluoro-propionamide]
> 10	6.1	CC1(C)OCC(N)=N[C@]1(C)c1cc(NC(=O)C2CC2)ccc1F [Example 54, cyclopropanecarboxylic acid [3-((R)-5-amino-2,2,3-trimethyl-3,6-dihydro-2H-[1,4]oxazin-3-yl)-4-fluoro-phenyl]-amide]
> 10	3.6	C[C@@]1(c2cc(NC(=O)C3CC(Cl)C3)ccc2F)COCC(N)=N1 (stereo partly drawn) [Example 58, 3-chloro-cyclobutanecarboxylic acid [3-((R)-5-amino-3-methyl-3,6-dihydro-2H-[1,4]oxazin-3-yl)-4-fluoro-phenyl]-amide]
